Assay results published in PubChem BioAssay (NCI).
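In this assay, cells in 96-well plates receive the compound at five concentrations for 48 hours. Endpoints are linearly interpolated between the surrounding concentrations. Abbreviation: GI50, concentration required for 50% inhibition of growth. At the TGI there is no net growth.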

Columns and labels:
Test in all cases: NCI tumour cell line growth inhibition, 48 h
LOX IMVI melanoma = tested on: LOX IMVI melanoma
NCI-H23 lung = tested on: NCI-H23 lung
OVCAR-8 ovarian = tested on: OVCAR-8 ovarian
HT29 colon = tested on: HT29 colon
PC-3 prostate = tested on: PC-3 prostate
CAKI-1 renal = tested on: CAKI-1 renal
OVCAR-4 ovarian = tested on: OVCAR-4 ovarian
SF-295 CNS = tested on: SF-295 CNS
ACHN renal = tested on: ACHN renal
MALME-3M melanoma = tested on: MALME-3M melanoma

CCCN(CCC)c1ccc(C=O)c(Cl)c1
GI50 (LOX IMVI melanoma): 23.4 µM
TGI (LOX IMVI melanoma): > 63.7 µM
GI50 (NCI-H23 lung): 25.6 µM
TGI (NCI-H23 lung): > 100 µM
GI50 (OVCAR-8 ovarian): 28.4 µM
TGI (OVCAR-8 ovarian): > 100 µM
GI50 (HT29 colon): 18.4 µM
TGI (HT29 colon): 50.2 µM
GI50 (PC-3 prostate): 29.1 µM
TGI (PC-3 prostate): > 100 µM
GI50 (CAKI-1 renal): 15.1 µM
TGI (CAKI-1 renal): > 66.9 µM
GI50 (OVCAR-4 ovarian): 0.78 µM
TGI (OVCAR-4 ovarian): 14.2 µM
GI50 (SF-295 CNS): 3.87 µM
TGI (SF-295 CNS): 29.2 µM
GI50 (ACHN renal): 31.7 µM
TGI (ACHN renal): > 100 µM
GI50 (MALME-3M melanoma): 23.4 µM
TGI (MALME-3M melanoma): > 69 µM

O=C(c1ccc2ccccc2c1)c1nc2cc(F)ccc2[n+]([O-])c1C(F)(F)F
GI50 (LOX IMVI melanoma): 13.8 µM
TGI (LOX IMVI melanoma): 26.9 µM
GI50 (NCI-H23 lung): 13 µM
TGI (NCI-H23 lung): 29.1 µM
GI50 (OVCAR-8 ovarian): 16.7 µM
TGI (OVCAR-8 ovarian): 32.4 µM
GI50 (HT29 colon): 16.3 µM
TGI (HT29 colon): 35.2 µM
GI50 (PC-3 prostate): 20.1 µM
TGI (PC-3 prostate): 53.4 µM
GI50 (CAKI-1 renal): 4.29 µM
TGI (CAKI-1 renal): 17.6 µM
GI50 (OVCAR-4 ovarian): 18.7 µM
TGI (OVCAR-4 ovarian): 36.8 µM
GI50 (SF-295 CNS): 18.3 µM
TGI (SF-295 CNS): 37.9 µM
GI50 (ACHN renal): 22.5 µM
TGI (ACHN renal): 60 µM
GI50 (MALME-3M melanoma): 17.3 µM
TGI (MALME-3M melanoma): 32.9 µM

CSc1ncnc2c1ncn2CC(=O)C1CCC2C3CCC4=CC(=O)CCC4(C)C3CCC12C (stereo not drawn)
TGI (LOX IMVI melanoma): 19.4 µM
TGI (NCI-H23 lung): 35.2 µM
TGI (OVCAR-8 ovarian): > 40.7 µM
TGI (HT29 colon): > 100 µM
TGI (PC-3 prostate): 9.71 µM
TGI (CAKI-1 renal): > 70.2 µM
TGI (OVCAR-4 ovarian): 21.3 µM
TGI (SF-295 CNS): 23.7 µM
TGI (ACHN renal): 23.8 µM
TGI (MALME-3M melanoma): 31.7 µM

COc1cc(F)ccc1-c1cc(Nc2cc(CS(C)(=N)=O)ccn2)ncc1F (stereo not drawn)
GI50 (LOX IMVI melanoma): 0.0307 µM
TGI (LOX IMVI melanoma): > 100 µM
GI50 (NCI-H23 lung): 0.0982 µM
TGI (NCI-H23 lung): 1.24 µM
GI50 (OVCAR-8 ovarian): 0.0914 µM
TGI (OVCAR-8 ovarian): > 100 µM
GI50 (HT29 colon): 0.0945 µM
TGI (HT29 colon): > 100 µM
GI50 (PC-3 prostate): 0.0451 µM
TGI (PC-3 prostate): > 47.2 µM
GI50 (CAKI-1 renal): 0.0438 µM
TGI (CAKI-1 renal): > 100 µM
GI50 (OVCAR-4 ovarian): 0.227 µM
GI50 (SF-295 CNS): 0.0662 µM
TGI (SF-295 CNS): > 100 µM
GI50 (ACHN renal): 0.0371 µM
TGI (ACHN renal): > 100 µM
GI50 (MALME-3M melanoma): 0.2 µM

Cn1cc(-c2cc(-c3cn(C)c4ccc(Cl)cc34)[nH]n2)c2cc(Cl)ccc21
GI50 (LOX IMVI melanoma): 1.7 µM
TGI (LOX IMVI melanoma): 3.8 µM
GI50 (NCI-H23 lung): 2.48 µM
TGI (NCI-H23 lung): 7.69 µM
GI50 (OVCAR-8 ovarian): 4.03 µM
TGI (OVCAR-8 ovarian): 19.8 µM
GI50 (HT29 colon): 3.57 µM
TGI (HT29 colon): 18.1 µM
GI50 (PC-3 prostate): 3.05 µM
TGI (PC-3 prostate): 14.2 µM
GI50 (CAKI-1 renal): 1.7 µM
TGI (CAKI-1 renal): 6.05 µM
GI50 (OVCAR-4 ovarian): 5.82 µM
TGI (OVCAR-4 ovarian): 28.4 µM
GI50 (SF-295 CNS): 2.52 µM
TGI (SF-295 CNS): 8.65 µM
GI50 (ACHN renal): 3.23 µM
TGI (ACHN renal): 12.8 µM
GI50 (MALME-3M melanoma): 9.64 µM
TGI (MALME-3M melanoma): 67.4 µM
